Measurements as given in publication PMC2266763, “Dimerization of the transmembrane domain of amyloid precursor proteins and familial Alzheimer's disease mutants” (BMC Neuroscience, 2008).
Entries after “also recorded” stand apart in the source; their conditions may differ. Blank lines part the entries; values can stand above or below the molecule they belong to. Ends that are not written are not given here. Lys‑tag = not defined here

B1: wild-type APP-TM peptide (peptide)
peptide: GAIIGLMVGGVVIATVIVITLVML-{Lys‑tag}
modifications: not fully specified (N-terminus); reading uncertain
notes: amyloid precursor protein (APP), human, residues 700 to 723, contain the TM segment; Two versions were synthesised: Lys-tag-W-(700-723)-Lys-tag (FRET donor) and Lys-tag-E(EDANS)-(700-723)-Lys-tag (FRET acceptor); also called wild-type APP transmembrane domain peptide; source: synthetic peptide (solid-phase synthesis, purified by reverse phase C4-HPLC); not shown: oligo-lysine tag (Lys-tag), …
B2: V717F APP-TM peptide (peptide)
peptide: GAIIGLMVGGVVIATVIFITLVML-{Lys‑tag}
modifications: not fully specified (N-terminus); reading uncertain
notes: amyloid precursor protein (APP), human, residues 700 to 723 with the familial Alzheimer's disease mutation V717F; Two versions (Trp donor, Glu-EDANS acceptor) as for m1; Said to be soluble only in the presence of SDS; source: synthetic peptide (solid-phase synthesis, purified by reverse phase C4-HPLC); not shown: oligo-lysine tag (Lys-tag), N-terminal, kept; Trp (donor version) or Glu-EDANS …
B3: V717G APP-TM peptide (peptide)
peptide: GAIIGLMVGGVVIATVIGITLVML-{Lys‑tag}
modifications: not fully specified (N-terminus); reading uncertain
notes: amyloid precursor protein (APP), human, residues 700 to 723 with the familial Alzheimer's disease mutation V717G; Two versions (Trp donor, Glu-EDANS acceptor) as for m1; source: synthetic peptide (solid-phase synthesis, purified by reverse phase C4-HPLC); not shown: oligo-lysine tag (Lys-tag), N-terminal, kept; Trp (donor version) or Glu-EDANS (acceptor version), N-terminal, kept; oligo-lysine …

Key:
[1] = tested on: APP-TM dimer (self-association); assay: SDS-PAGE oligomeric state; assay type: binding, human; settings: 20 mM SDS; for Oligomeric state by SDS-PAGE: 40 mM Tris, 8 mM Acetate (pH 7.0), 5% glycerol, 0 – 25 μM peptide, boiled 5 minutes; for Oligomeric state by SDS-PAGE, concentration range: at different concentrations (0 – 25 μM peptide), pH 7.0
Procedure: Samples contained 20 mM SDS, 40 mM Tris, 8 mM Acetate (pH 7.0), 5% glycerol, and 0 – 25 μM peptide. They were boiled for 5 minutes and subjected to SDS-PAGE using precast 4–12% Nupage gels (Invitrogen) and a standard running buffer. SeeBlue®Plus2 molecular weight markers from Invitrogen were used as standards.

[2] = tested on: APP-TM oligomer (self-association); assay: FRET of APP-TM peptides in DOPG phospholipid vesicles; assay type: binding, human; settings: 1:20 peptide:DOPG, 50 mM Tris, 10 mM NaCl (pH 7.0), room temperature, excitation 285 nm
Procedure: DOPG vesicles with incorporated peptides were prepared via sonication of dried lipid films in the presence of peptide solution at a molar ratio of 1 mole of peptide: 20 moles of DOPG as previously described. The samples contained 50 mM Tris, 10 mM NaCl (pH 7.0) as the buffer. […] Purified peptide-incorporated vesicle fractions were used for fluorescence measurements.
(§1) Fluorescence measurements were made at room temperature using a PTI QM-1 fluorescence spectrophotometer. A quartz cuvette with a 2 mm excitation pathlength and a 1 cm emission pathlength was used. The excitation wavelength was 285 nm and the bandpass was 4 nm. We obtained a quantitative measure of the degree of peptide oligomerization by integrating the EDANS emission signal from 472–496 nm and dividing this value with the integrated Trp emission signal from 350–375 nm. This ratio of acceptor fluorescence to donor fluorescence is denoted either as Acceptor/Donor ratio or A/D ratio and can be used to compare peptide oligomerization at varying concentrations.

Aβ40 and Aβ42 production = assay: Aβ ELISA immunoassay, HEK293 cells expressing Swedish mutant APP and γ-secretase components; assay type: cell-based, human; settings: for Effect on levels of Aβ (Aβ40 and Aβ42): overnight incubation, 0, 20 or 100 μM peptide, conditioned media; for Effect on levels of Aβ (Aβ40 and Aβ42) / Effect on Aβ42/40 ratio: relative to control samples
Procedure: Stably transfected HEK293 cells overexpressing the Swedish double mutant (K670N/M671L) of APP751, presenilin 1, nicastrin, PEN-2 and APH-1 were grown to confluency in DMEM media containing 10% fetal bovine serum. The cells were grown for another 48 hours with the media changed twice at equivalent time intervals. Cells were then incubated overnight in fresh media containing 0, 20 or 100 μM APP-TM peptides. The media was collected and subjected to an immunoassay to determine the Aβ42 and Aβ40 concentrations. The ELISA BioSource immunoassay human β-amyloid 1–40/1–42 colorimetric kit (catalogue number KHB3482/KHB3481) was used and the standard protocol was followed. This sandwich ELISA technique makes use of an immobilized Aβ antibody that binds both Aβ40 and Aβ42 at an N-terminal epitope. The bound Aβ40 and Aβ42 are then detected using a C-terminal antibody specific for either Aβ40 or Aβ42. […] Therefore, this assay is ideally suited to detect any disturbances in the normal processing of endogeneuous full length APP in the presence of APP-TM peptides.

[3] = tested on: HEK293 cells stably overexpressing Swedish-mutant APP751 and γ-secretase components; assay: Sulforhodamine B (SRB) cytotoxicity assay; assay type: cell-based; settings: SRB assay, 0, 10, 20, and 100 μM peptide, overnight
Procedure: Stably transfected HEK293 cells overexpressing Swedish-mutant APP751 and γ-secretase components were plated at 15,000 cells/well in DMEM media containing 10% fetal bovine serum. The cells were grown for another 48 hours with the media changed twice at equivalent time intervals. Cells were then incubated overnight in fresh media containing 0, 10, 20, and 100 μM APP-TM peptides, and the SRB cytotoxicity assay was performed as previously described.

[4] = target: T714I APP-TM peptide (human); assay: FRET or BRET; apparent; dimer to monomers; concentration dependence of the A/D ratio in equimolar mixtures of donor- and acceptor-labelled peptide, 20 mM SDS, 40 mM Tris, 8 mM acetate (pH 7.0), 0 – 90 μM peptide, room temperature
[5] = tested on: APP-TM dimer (self-association); assay: FRET dimer dissociation, APP-TM peptides in SDS micelles; assay type: binding, human; settings: for Kd: concentration dependence of FRET (Trp donor / EDANS acceptor, equimolar), 20 mM SDS, 40 mM Tris, 8 mM Acetate (pH 7.0), 0 – 90 μM peptide, overnight, room temperature, average error 3.6%, read-out: Apparent dimer dissociation constant
Procedure: (§2) Mixed peptide-SDS micelles were prepared by the addition of concentrated SDS to peptide solutions, such that the final concentrations were 20 mM SDS, 40 mM Tris, 8 mM Acetate (pH 7.0) and 0 – 90 μM peptide. The samples were sonicated and incubated overnight in the dark at room temperature before making fluorescence measurements.
as §1
The apparent dissociation constants were determined using an equation derived from first principles of monomer-dimer equilibrium, where Kd = [A]^2/[A2]. The fluorescence acceptor-donor ratio was plotted against total peptide concentration and fit to the following equation:
[AT]=Kd(Fobs−Fmin/Fmax−Fmin)/2(1−Fobs−Fmin/Fmax−Fmin)^2
Where AT = total APP-TM peptide concentration, F = A/D ratio, fraction dimer = (Fobs-Fmin)/Fmax-Fmin), and % dimer = 100% (fraction dimer). The goodness-of-fit to the model were assessed using the chi-squared test, nonlinear least squares correlation, and examination of residuals.

[6] = Solubility of APP-TM peptides; assay type: physicochemical
wild-type APP-TM peptide [7] = assay: FRET hetero-oligomerization of wild-type and mutant APP-TM peptides; assay type: binding, human; settings: Trp-labeled wild-type with EDANS-labeled V717G, constant 1:1 ratio, 20 mM SDS
Procedure: as §2, §1

[8] = target: the molecule itself; assay: SDS-PAGE of the oligomeric state; 20 mM SDS, 40 mM Tris, 8 mM acetate (pH 7.0), 5% glycerol, 0 – 25 μM peptide, boiled 5 minutes, 4–12% Nupage gels
[9] = target: the molecule itself; assay: FRET or BRET; apparent; dimer to monomers; concentration dependence of the A/D ratio in equimolar mixtures of donor- and acceptor-labelled peptide, 20 mM SDS, 40 mM Tris, 8 mM acetate (pH 7.0), 0 – 90 μM peptide, room temperature
[10] = target: V717F APP-TM peptide (human); assay: as above
wild-type APP-TM peptide [11] = target: B1; assay: FRET or BRET; mixed: Trp-labelled wild-type with equimolar Edans-labelled mutant peptide in 20 mM SDS; A/D ratio against total peptide concentration (V717G) and at 50 μM total peptide (all mutants); baseline A/D 0.24 for non-interacting peptides; settings: both partners purified
[12] = 0, 20 or 100 μM peptide, overnight

Molecule: Lys-tag(W/EEDANS)GAIIGLMVGGVVIATVIVITLVML Lys-tag [wild-type, APP-TM peptide, residues 700 to 723 of human APP, with N- and C-terminal oligo-lysine tags; Trp or Glu-EDANS labeled]
- Oligomeric state by SDS-PAGE [1]: formed stable dimers
- Oligomeric state by SDS-PAGE, concentration range [1]: predominantly dimeric under all concentrations tested
- FRET signature (donor quenching, acceptor sensitization) in phospholipid bilayers [2]: Typical donor quenching and acceptor sensitization was observed
- Concentration dependence of Aβ reduction (Aβ40 and Aβ42 production; [12]): strong concentration dependence
- Inhibitory effect on Aβ42 versus Aβ40 production (Aβ40 and Aβ42 production; [12]): greater inhibitory effect on Aβ42 production (Fig. 7B) than on Aβ40 production
- Effect on levels of Aβ (Aβ40 and Aβ42) (Aβ40 and Aβ42 production): drastic reduction in the levels of Aβ relative to control samples
- Effect on Aβ42/40 ratio (Aβ40 and Aβ42 production; [12]): reduction in the Aβ42/40 ratio relative to control samples
- Cell survival / viability [3]: neither peptide caused a reduction in cell survival

- Kd [4]: 395 µM
Molecule: T714I APP-TM peptide

- Kd [5]: 395 µM
- Solubility [6]: only soluble in the presence of SDS
Molecule: Lys-tag(W/EEDANS)GAIIGLMVGGVVIAIVIGITLVML Lys-tag [T714I, FAD mutant T714I APP-TM peptide with N- and C-terminal oligo-lysine tags]
- Oligomeric state by SDS-PAGE [1]: predominantly monomeric
- Relative dimer stability ([5]; among wild-type and FAD mutants tested, SDS micelles): least stable dimer

- Kd [5]: 125 µM
- Solubility [6]: only soluble in the presence of SDS
Molecule: Lys-tag(W/EEDANS)GAIIGLMVGGVVIATVIFITLVML Lys-tag [V717F, FAD mutant V717F APP-TM peptide with N- and C-terminal oligo-lysine tags]
- Oligomeric state by SDS-PAGE [1]: predominantly monomeric

Molecule: Lys-tag(W/EEDANS)GAIIGLMVGGVVIATVIGITLVML Lys-tag [V717G, FAD mutant V717G APP-TM peptide with N- and C-terminal oligo-lysine tags]
- Oligomeric state by SDS-PAGE [1]: populated both monomer and dimer states
- Oligomeric state by SDS-PAGE, concentration range [1]: formed monomer-dimer mixtures across the same concentration range
- Total peptide concentration at which A/D ratio shows signs of saturation (hetero-oligomerization) (wild-type APP-TM peptide [7]): above 50 μM
- Concentration dependence of Aβ reduction (Aβ40 and Aβ42 production; [12]): strong concentration dependence
- Inhibitory effect on Aβ42 versus Aβ40 production (Aβ40 and Aβ42 production; [12]): greater inhibitory effect on Aβ42 production (Fig. 7B) than on Aβ40 production
- Suppression of Aβ production relative to wild-type peptide (Aβ40 and Aβ42 production; [12]): greater than that of the wild-type peptide; also recorded: significantly greater inhibition of Aβ production than the wild-type peptide
- Effect on levels of Aβ (Aβ40 and Aβ42) (Aβ40 and Aβ42 production): drastic reduction in the levels of Aβ relative to control samples
- Effect on Aβ42/40 ratio (Aβ40 and Aβ42 production; [12]): reduction in the Aβ42/40 ratio relative to control samples
- Cell survival / viability [3]: neither peptide caused a reduction in cell survival

Molecule: B1
- stoichiometry N [8]: 2
- Kd [9]: 10.3 µM

Molecule: B2
- Kd [10]: 125 µM
- binding result (wild-type APP-TM peptide [11]): binds

Molecule: B3
- stoichiometry N [8]: 2
- Kd [9]: 20.4 µM
- binding result (wild-type APP-TM peptide [11]): binds
